Where “and” joins values, the source holds several entries; their conditions need not be identical. Equal values may be shown once. One block for each compound: values may come before it.
Assay: photoluminescence quantum yield (fraction); solvent given as SMILES
[1] = in O=P(c1ccccc1)(c1ccccc1)c1ccccc1Oc1ccccc1P(=O)(c1ccccc1)c1ccccc1

Compound: COc1cc(OC)cc(C2=[O+][B-](F)(F)OC(c3ccc4ccccc4c3)=C2)c1
photoluminescence quantum yield (in CC#N): 0.01
photoluminescence quantum yield (in CC(C)=O): 0.01
photoluminescence quantum yield (in CCCCCC): 0.19
photoluminescence quantum yield (in Cc1ccccc1): 0.1
photoluminescence quantum yield (in ClCCl): 0.05

photoluminescence quantum yield (in CCCCCC): 1
Compound: F[B-]1(F)n2c(ccc2-c2cccs2)C(C(F)(F)F)=C2C=CC(c3cccs3)=[N+]21

photoluminescence quantum yield (in CCO): 0.06
Compound: CNc1ccc2nc3cc(Cl)c(Cl)cc3nc2c1

photoluminescence quantum yield (in ClCCl): 0.61
Compound: CCn1c2cc(-c3cccs3)ccc2c2ccc(-c3cccs3)cc21

photoluminescence quantum yield (in C1CCOC1): 0.7
photoluminescence quantum yield (in CO): 0.58
Compound: CCOC(=O)C1=CNC=C(C(=O)OCC)C1c1ccccc1

photoluminescence quantum yield (in C1CCOC1): 0.0015
Compound: C(=C1c2ccccc2-c2ccccc21)c1ccc(-c2ccc(C=C3c4ccccc4-c4ccccc43)cc2)cc1

Compound: COC(=O)c1ccc(-c2cc3ccc4cccc5ccc(c2)c3c45)cc1
photoluminescence quantum yield (in Cc1ccccc1): 0.43

photoluminescence quantum yield (in C1CCCCC1): 0.0004
photoluminescence quantum yield (in CC#N): 0.027
photoluminescence quantum yield (in CCO): 0.0009
photoluminescence quantum yield (in c1ccccc1): 0.0078
Compound: O=C1c2ccccc2-c2ccccc21

photoluminescence quantum yield (in CCO): 0.006
Compound: CCOC(=O)c1cc(C(=O)OCC)c2ccccc2n1

photoluminescence quantum yield (in ClC(Cl)Cl): 0.612
Compound: F[B-]1(F)OC(c2ccc(N3CCCCC3)cc2)=Cc2cccc[n+]21

photoluminescence quantum yield (in ClC(Cl)Cl): 0.05
Compound: F[B-]1(F)n2c(cc3sc4ccccc4c32)C(c2ccc(I)cc2)=C2C=c3sc4ccccc4c3=[N+]21

Compound: COc1c2ccccc2c(OC)c2c(C#Cc3ccccc3)c3cc4sccc4cc3c(C#Cc3ccccc3)c12
photoluminescence quantum yield (in C1CCOC1): 0.13
photoluminescence quantum yield (in Cc1ccccc1): 0.1
photoluminescence quantum yield (in ClCCl): 0.11

Compound: Cc1cc(-c2ccc(-c3ccccc3)cc2)nc(-c2ccc(-n3c4ccccc4c4ccccc43)cc2)n1
photoluminescence quantum yield (in C1CCOC1): 0.22
photoluminescence quantum yield (in CN(C)C=O): 0.24
photoluminescence quantum yield (in Cc1ccccc1): 0.24
photoluminescence quantum yield (in ClC(Cl)Cl): 0.43

photoluminescence quantum yield (in ClC(Cl)Cl): 0.1
Compound: Cc1ccc(-c2oc3cccc4c5c(-c6ccc(C)cc6)c(=N)oc6cccc(c2c34)c65)cc1

Compound: c1ccc2cc3cc4c(cc3cc2c1)-c1cccc2cccc-4c12
photoluminescence quantum yield (in CCCCCCC): 0.58

Compound: CC(C)(C)c1ccc2c(c1)c1cc(C(C)(C)C)ccc1n2-c1ccc(-c2nc(-c3ccc(P(=O)(c4ccccc4)c4ccccc4)cc3)nc(-c3ccc(P(=O)(c4ccccc4)c4ccccc4)cc3)n2)cc1
photoluminescence quantum yield [1]: 0.96

photoluminescence quantum yield (in C1CCOC1): 0.64
Compound: F[Si-](F)(c1c2ccccc2cc2ccccc12)(c1c2ccccc2cc2ccccc12)c1c2ccccc2cc2ccccc12

photoluminescence quantum yield (in ClCCl): 0.13
Compound: C(#Cc1ncc(-c2ccccc2)o1)c1cccnc1

photoluminescence quantum yield (in ClCCl): 0.82
photoluminescence quantum yield (in c1cc(-n2c3ccccc3c3ccccc32)cc(-n2c3ccccc3c3ccccc32)c1): 0.86
Compound: c1ccc(N(c2ccccc2)c2ccc(-c3ccc4c(c3)C3(c5cc(-c6ccc(N(c7ccccc7)c7ccccc7)cc6)ccc5-4)c4ccccc4N(c4ccccc4)c4ccccc43)cc2)cc1

Compound: Nc1ccc2c(c1)C(=O)NC2=O
photoluminescence quantum yield (in C1CCOC1): 0.7 and 1
photoluminescence quantum yield (in C1COCCO1): 0.73
photoluminescence quantum yield (in CC#N): 0.63
photoluminescence quantum yield (in CC(C)=O): 0.68
photoluminescence quantum yield (in CCO): 0.21
photoluminescence quantum yield (in CN(C)C=O): 0.91
photoluminescence quantum yield (in ClCCl): 0.76

photoluminescence quantum yield (in C1CCOC1): 0.76
Compound: F[Si-](F)(c1ccccc1)(c1ccccc1)c1c2ccccc2cc2ccccc12

photoluminescence quantum yield (in C1CCOC1): 0.0282
Compound: C(=C(c1ccccc1)c1ccccc1)c1ccc(-c2cc(-c3ccc(C=C(c4ccccc4)c4ccccc4)cc3)c(-c3ccc(C=C(c4ccccc4)c4ccccc4)cc3)cc2-c2ccc(C=C(c3ccccc3)c3ccccc3)cc2)cc1

Compound: CC(C)(C)c1ccc2c(c1)c1cc(C(C)(C)C)ccc1n2-c1ccccc1-c1nc(-c2ccccc2-n2c3ccc(C(C)(C)C)cc3c3cc(C(C)(C)C)ccc32)nc(-c2ccccc2P(=O)(c2ccccc2)c2ccccc2)n1
photoluminescence quantum yield [1]: 0.45

photoluminescence quantum yield (in C1COCCO1): 0.95
photoluminescence quantum yield (in CC#N): 0.95
photoluminescence quantum yield (in CO): 0.89
photoluminescence quantum yield (in ClCCl): 0.87
Compound: CCCCNC(=O)c1nc2c(N(C)C)nc(N(C)C)nc2n1Cc1ccccc1

photoluminescence quantum yield (in CO): 0.004
Compound: N#Cc1c(-n2cc(-c3ccccc3)nn2)n([C@H]2C[C@H](O)[C@@H](CO)O2)c2ncnc(N)c12

Compound: Cc1ccc2c(c1)C1(c3ccccc3-c3ccccc31)c1cc(C)ccc1N2c1ccc(-c2nc(-c3ccccc3)cc(-c3ccccc3)n2)cc1
photoluminescence quantum yield (in O=P(c1ccccc1)(c1ccccc1)c1ccc2oc3ccc(P(=O)(c4ccccc4)c4ccccc4)cc3c2c1): 0.87

photoluminescence quantum yield (in C1CCOC1): 0.7
Compound: CCCCCCCCCc1c2ccccc2cc2c1oc1c3c(c4ccccc4c12)-c1c(c2oc4cc5ccccc5cc4c2c2ccccc12)OCO3

Compound: CCCCCCC(CCCCCC)N1C(=O)c2cccc3c(-c4ccc(OC)cc4)ccc(c23)C1=O
photoluminescence quantum yield (in CCCCCC): 0.65
photoluminescence quantum yield (in CCCCCCCCCCCCCC): 0.79
photoluminescence quantum yield (in CCCCCCCCCCCO): 0.83
photoluminescence quantum yield (in CCCCO): 0.83
photoluminescence quantum yield (in CN(C)C=O): 0.82
photoluminescence quantum yield (in Cc1ccccc1): 0.75
photoluminescence quantum yield (in ClC(Cl)Cl): 0.83

photoluminescence quantum yield (in CO): 0.09
photoluminescence quantum yield (in ClC(Cl)Cl): 0.12
Compound: Cc1cc(=O)oc2cc3c4ccccc4c4ccccc4c3cc12

Compound: Nc1cccc2ccccc12
photoluminescence quantum yield (in C1CCCCC1): 0.6

photoluminescence quantum yield (in CC#N): 0.55
Compound: COc1ccc(C#Cc2cc3ccccc3oc2=O)cc1

photoluminescence quantum yield (in CC#N): 0.019
Compound: Cc1ccc2nc3c(=O)[nH]c(=O)[nH]c3nc2c1C

Compound: c1ccc(-c2nc(-c3ccccc3)nc(-c3ccc(-n4c5ccccc5c5cc6c(cc54)C4c5ccccc5C6c5ccccc54)cc3)n2)cc1
photoluminescence quantum yield (in Cc1ccccc1): 0.77
photoluminescence quantum yield [1]: 0.4

Compound: CN(C)c1ccc(-c2c(/C=C3/C=Cc4ccccc4N3Cc3ccccc3)c(=O)c2=O)cc1
photoluminescence quantum yield (in C1CCCCC1): 0.0146
photoluminescence quantum yield (in Cc1ccccc1): 0.0141
photoluminescence quantum yield (in ClCCl): 0.001

photoluminescence quantum yield (in C1CCCCC1): 0.28
Compound: Cc1cccc(-c2cccc(C)c2)c1

photoluminescence quantum yield (in C1CCOC1): 0.32
Compound: COc1ccc(/C=C/C(F)(F)F)c(N)c1

photoluminescence quantum yield (in CO): 0.29
Compound: COc1ccccc1-c1nc(-c2ccccc2)c(-c2ccccc2)[nH]1

photoluminescence quantum yield (in ClC(Cl)Cl): 0.04
Compound: CC1=c2cc3c(cc2=[N+]2C1=Cc1c4ccccc4c(C)n1[B-]2(F)F)C1=Cc2c4ccccc4c(C)n2[B-](F)(F)[N+]1=C3C

photoluminescence quantum yield (in CC#N): 0.95
photoluminescence quantum yield (in CCO): 0.88
photoluminescence quantum yield (in CN(C)C=O): 0.84
photoluminescence quantum yield (in O): 0.85
Compound: Nc1ccc2c(-c3ccccc3C(=O)[O-])c3ccc(=[NH2+])cc-3oc2c1

Compound: CCCCCCCCN1c2ccc(C#Cc3cc(C(F)(F)F)cc(C(F)(F)F)c3)cc2Sc2cc(C=O)ccc21
photoluminescence quantum yield (in C1CCOC1): 0.53
photoluminescence quantum yield (in CC#N): 0.53
photoluminescence quantum yield (in CCCCCC): 0.6
photoluminescence quantum yield (in CO): 0.11
photoluminescence quantum yield (in CS(C)=O): 0.77
photoluminescence quantum yield (in Cc1ccccc1): 0.67
photoluminescence quantum yield (in ClC(Cl)Cl): 0.63

photoluminescence quantum yield (in C1CCCCC1): 0.0086
photoluminescence quantum yield (in c1ccccc1): 0.00099
Compound: Nc1ccc2c(c1)C(=O)c1ccccc1-2

photoluminescence quantum yield (in O): 0.041
Compound: CC(=O)c1ccn2c3c(c(/C=C/c4cc[n+](C)cc4)c2c1)CN(C)C3=O

Compound: COC(=O)c1ccc(NC(=O)c2ccc(N(C)C)cc2)cc1
photoluminescence quantum yield (in C1CCCCC1): 0.0148
photoluminescence quantum yield (in C1CCOC1): 0.198
photoluminescence quantum yield (in CC#N): 0.0209
photoluminescence quantum yield (in CCOCC): 0.0512

photoluminescence quantum yield (in ClCCl): 0.9
Compound: CCCCN1c2ccccc2B(c2ccccc2C(F)(F)F)c2ccccc21

photoluminescence quantum yield (in C1CCOC1): 0.68
Compound: F[B-]1(F)Oc2c(-c3cccc4c3O[B-](F)(F)[n+]3c(-c5ccccc5)c(-c5ccccc5)n(-c5ccc(C(F)(F)F)cc5)c3-4)cccc2-c2n(-c3ccc(C(F)(F)F)cc3)c(-c3ccccc3)c(-c3ccccc3)[n+]21

photoluminescence quantum yield (in ClCCl): 0.15
Compound: COc1ccc(/C=C/c2cc(/C=C/c3ccc(OC)cc3)nc(/C=C/c3ccc(OC)cc3)n2)cc1

Compound: CCN(CC)c1ccc(/C=C/c2cc(/C=C/c3ccc(N(CC)CC)cc3)nc(N)n2)cc1
photoluminescence quantum yield (in Cc1ccccc1): 0.72
photoluminescence quantum yield (in ClC(Cl)Cl): 0.61

Compound: COc1ccc(-c2c3ccc([nH]3)c3nc(c(-c4ccc([N+](=O)[O-])cc4)c4ccc([nH]4)c4ccc([nH]4)c(-c4ccc(OC)cc4)c4ccc2o4)C=C3)cc1
photoluminescence quantum yield (in C1CCOC1): 0.013
photoluminescence quantum yield (in Cc1ccccc1): 0.075
photoluminescence quantum yield (in c1ccccc1): 0.08

photoluminescence quantum yield (in C1COCCO1): 0.65
photoluminescence quantum yield (in CC#N): 0.66
photoluminescence quantum yield (in CO): 0.61
photoluminescence quantum yield (in ClCCl): 0.65
Compound: CNc1ncc2nc(C(=O)OC)n(Cc3ccccc3)c2n1

photoluminescence quantum yield (in C1CCOC1): 0.37
Compound: c1cc2ccc1-c1ccc(cc1)-c1ccc(s1)-c1ccc(cc1)-c1ccc(cc1)-c1ccc(s1)-c1ccc(cc1)-c1ccc(cc1)-c1ccc(s1)-c1ccc(cc1)-c1ccc(cc1)-c1ccc-2s1

Compound: O=C1c2ccc(N(c3ccc(-c4ccccc4)cc3)c3ccc(-c4ccccc4)cc3)cc2C(=O)c2ccc(N(c3ccc(-c4ccccc4)cc3)c3ccc(-c4ccccc4)cc3)cc21
photoluminescence quantum yield (in Cc1ccccc1): 0.1
photoluminescence quantum yield (in c1ccc2c(c1)c1ccccc1n2-c1ccc(-c2ccc(-n3c4ccccc4c4ccccc43)cc2)cc1): 0.42

photoluminescence quantum yield (in C1COCCO1): 0.65
Compound: CCC(C)(C)c1ccc(-c2ccc(-c3ccccc3)cc2)cc1

photoluminescence quantum yield (in CC#N): 0.08
photoluminescence quantum yield (in ClCCl): 0.82
Compound: COC(=O)c1cc(=O)n(C)c2cc(-c3ccc(N(C)C)cc3)sc12

Compound: COc1ccc(/C=C/C2=CC(/C=C/c3ccc(OC)cc3)=[O+][B-](OC(C)=O)(OC(C)=O)O2)cc1
photoluminescence quantum yield (in C1CCOC1): 0.95
photoluminescence quantum yield (in CC#N): 0.85
photoluminescence quantum yield (in CC(C)=O): 0.88
photoluminescence quantum yield (in CS(C)=O): 0.83
photoluminescence quantum yield (in Cc1ccccc1): 0.98
photoluminescence quantum yield (in ClC(Cl)Cl): 0.91
photoluminescence quantum yield (in ClCCl): 0.92

photoluminescence quantum yield (in CO): 0.45
Compound: Cc1ccc(C2=C3C=CC(Nc4ccccc4)=[N+]3[B-](F)(F)n3c(Nc4ccccc4)ccc32)cc1

Compound: COc1cc(N(c2ccc(C=C(C#N)C#N)c(OC)c2)c2ccc(C=C(C#N)C#N)c(OC)c2)ccc1C=C(C#N)C#N
photoluminescence quantum yield (in C1COCCO1): 0.025
photoluminescence quantum yield (in CC#N): 0.047
photoluminescence quantum yield (in CC(C)=O): 0.074
photoluminescence quantum yield (in CCOC(C)=O): 0.166
photoluminescence quantum yield (in CN(C)C=O): 0.026
photoluminescence quantum yield (in CO): 0.043
photoluminescence quantum yield (in Cc1ccccc1): 0.018
photoluminescence quantum yield (in ClC(Cl)Cl): 0.025
photoluminescence quantum yield (in ClCCl): 0.028

Reference: the Deep4Chem optical property database
